Source: PubChem BioAssay AID602331 (Johns Hopkins Ion Channel Center, 2012)
Activity calls are given as the source filed them.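 Rule for the calls: active = compound boosting capsaicin-evoked TRPV1 current more than 1.5 times over the capsaicin response; inactive = the rest.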

Molecular target: Transient receptor potential cation channel subfamily V member 1 (Homo sapiens) (UniProt Q8NER1)
Experiment: allosteric agonists potentiating TRPV1 currents, confirmation, QPatch automated patch clamp, HEK293 cells (AID 602331)
Conditions: HEK293-TRPV1 QPatch current potentiation, +100 mV, capsaicin; at 10 µM; active compounds read high

Sequence of Transient receptor potential cation channel subfamily V member 1 (Homo sapiens) (Q8NER1 whole entry, looked up): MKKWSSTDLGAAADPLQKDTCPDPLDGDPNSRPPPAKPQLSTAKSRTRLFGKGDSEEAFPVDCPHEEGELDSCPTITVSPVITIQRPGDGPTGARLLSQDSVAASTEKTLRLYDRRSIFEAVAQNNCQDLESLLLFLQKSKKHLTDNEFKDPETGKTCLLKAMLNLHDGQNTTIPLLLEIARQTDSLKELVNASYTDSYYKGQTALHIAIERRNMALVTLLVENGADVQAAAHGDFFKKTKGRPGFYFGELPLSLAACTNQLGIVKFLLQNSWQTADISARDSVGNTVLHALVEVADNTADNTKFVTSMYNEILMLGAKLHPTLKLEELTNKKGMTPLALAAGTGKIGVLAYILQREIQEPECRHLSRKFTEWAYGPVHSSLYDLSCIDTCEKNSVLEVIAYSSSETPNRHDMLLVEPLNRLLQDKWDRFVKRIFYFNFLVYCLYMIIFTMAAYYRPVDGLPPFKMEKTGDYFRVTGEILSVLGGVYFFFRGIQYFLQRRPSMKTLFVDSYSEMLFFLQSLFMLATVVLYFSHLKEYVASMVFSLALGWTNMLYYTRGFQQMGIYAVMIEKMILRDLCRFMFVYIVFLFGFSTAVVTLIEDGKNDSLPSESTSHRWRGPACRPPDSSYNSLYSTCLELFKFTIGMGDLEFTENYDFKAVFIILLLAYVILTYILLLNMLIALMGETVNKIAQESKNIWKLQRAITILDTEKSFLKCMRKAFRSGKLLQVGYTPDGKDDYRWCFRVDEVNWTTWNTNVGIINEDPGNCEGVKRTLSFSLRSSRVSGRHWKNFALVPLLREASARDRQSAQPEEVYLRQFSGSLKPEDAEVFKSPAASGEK

Structure (SMILES) | fold potentiation
O=c1c(/C=N/OCc2ccc(Cl)cc2Cl)c[nH]n1-c1cccc(Cl)n1 | 0.906 (inactive)
Cc1csc2c(=O)sc(NC(=O)c3ccc(F)cc3Cl)nc12 | 1.08 (inactive)
CC1=C(C)/C(=N\OS(=O)(=O)c2ccc(C)cc2)C=CC1=O | 1.63

Continued, values first:

fold potentiation | Structure (SMILES)
0.956 (inactive) | CC(=O)Nc1cccc(C(=O)OCC(=O)NCc2cc(C)c(O)c(C)c2)c1
0.776 (inactive) | CC(C)C(=O)Nc1ccc(C(=O)CN2C(=O)NC3(CCOc4ccccc43)C2=O)cc1 (configuration not stated)
3.23 | O=C(COC(=O)c1ccc2c(c1)C(=O)N(Cc1ccncc1)C2=O)Nc1ccccc1[N+](=O)[O-]
0.827 (inactive) | O=C(CNc1cccc(S(=O)(=O)N2CCOCC2)c1)Nc1cccc(Br)c1
